Like-named read-outs stand apart in the source and are kept apart here.
Columns and labels:
[1] = tested on: C16-induced angiogenesis in the chick CAM; assay: CAM assay, C16-induced angiogenesis; assay type: in vivo; conditions: peptide alone (C16: 0.5 μg)
Method: FIG. 4: Inhibition of C16-induced angiogenesis by C16Y. 0.5 μg of angiogenic stimulator (C16 peptide) and varying concentrations of either C16S or C16Y peptides were applied to 10-day-old embryonated eggs in 5 μl of water. After 3 days, microphotographs were taken of the eggs to determine angiogenesis levels. Negative control eggs were treated with water only (panel a), while positive control eggs were treated with bFGF only (not shown). As expected, C16 peptide administered alone stimulated angiogenesis (panel d). […] When the amount of inhibitor peptide was lowered to 0.05 μg, C16Y peptide continued to inhibit angiogenesis (panel f), while C16S peptide had no effect (panel c).
The CAM assay was performed using 10-day-old embryonated eggs (CBT, Charlestown, Md.) as described previously (Gho 1999). On embryonal day 3, approximately 4 ml of ovalbumin was removed from each egg. After opening windows on embryonal day 10, the angiogenic stimulus (C16) and test competitor peptides in 5 μl of distilled water were applied to the CAM after drying on 13-mm diameter quartered plastic coverslips (Thermanox; Nalge, NUNC International, Naperville, Ill.). Three days later, the eggs were scored for a positive response and photographed. The positive control was bFGF, and the negative control was the vehicle water. Experiments were repeated twice using a minimum of 11 eggs for each data point.

[2] = tested on: MDA-MB 231 breast tumor cells; assay type: in vivo, chick; conditions: for Average tumor weight: 7 day incubation
Method: FIG. 6: Inhibition of CAM tumor growth by C16Y. MDA-MB 231 breast tumor cells were mixed with C16 or C16Y peptides (at either 50 or 100 μg/ml), then mixed with 1:1 with neutralized collagen I solution. The collagen I gel was overlayed with the CAM of a 7-day-old embryo for 7 days, after which the membrane was fixed and tumor cells were removed and weighed. In the absence of either peptide, average tumor weight was 5.40±0.59 mg. […] C16Y peptide inhibited tumor growth by approximately 40% at both concentrations tested. Bars represent ±SD.
The effect of C16Y on tumor growth in vivo was analyzed using the CAM assay (Gho 2001). MDA-MB 231 breast tumor cells (a gift of Dan Welch, Pennsylvania State University, University Park, Pa.) (1×10^6 cells/0.1 ml) in RPMI 1640 were mixed with 0, 50, or 100 μg/ml of C16 or C16Y, and then mixed 1:1 with a neutralized collagen I solution (4.6 mg/ml collagen type 1). This collagen I gel was overlayed with the CAM of a 7-day-old embryo. After a 7 day incubation, the membrane was fixed and tumor cells were removed and weighed. This experiment was repeated twice, with each data point tested in at least six replicates.

MDA-MB 231 cells = assay: Tumor cell proliferation assay (Cell Titer 96 Aqueous); assay type: cell-based; conditions: 100 μg/ml, 2-72 hours
Method: A proliferation assay was performed to determine whether the tumor inhibition discussed in Example 6 was the result of angiogenesis inhibition or some effect on cell proliferation. Proliferation of MDA-MB 231 cells was quantified using a Cell Titer 96 Aqueous Cell Proliferation assay kit (Promega, Madison, Wis.). Cells were plated on four 96-well dishes at 5×10^3 cells/well and cultured in AIM-V serum-free medium (Life Technologies, Inc., Gaithersburg, Md.). After 1 hour, peptides C16 and C16Y were added at a final concentration of 100 μg/ml. A separate dish was used to quantitate proliferation at 2, 24, 48, and 72 hours by reading absorbance at 490 nm on an Emax plate reader. Each experiment was repeated in triplicate two times.

HUVECs = assay: Endothelial cell tube-forming assay on Matrigel; assay type: cell-based, human; design: key to Disruption of tube formation / Activity (tube formation, truncated C16Y peptides): +: tubes slightly affected; ++: tubes moderately affected; +++: tubes disrupted; ++++: tubes completely disrupted; −: tubes resemble control; conditions: for Disruption of tube formation: 16 hours
Method: FIG. 3: Disruption of endothelial cell tube formation by C16Y peptide. 48-well plates were coated with 200 μl of Matrigel per well. Each well was treated with RPMI containing 24,000 human umbilical vein endothelial cells (HUVECS) and 100 mg/L endothelial cell growth factor in the presence of 10-75 μg/ml of C16 or scrambled C16 peptide for 16 hours. Control wells contained medium only. Cells were fixed and stained, and tube formation was scored by a blinded observer.
Tube-forming assays were performed as described previously (Ponce 2001). 48-well plates were coated with 200 μl/well of Matrigel (Gho 2001; Kubota 1988), a basement membrane matrix. HUVECs (24,000 cells/well) were plated in RPMI 1640 containing 10% bovine calf serum, defined and supplemented (HyClone Laboratories, Inc., Logan, Utah), along with 100 mg/liter of endothelial cell growth factor (Collaborative Biomedical). C16 or scrambled C16 peptides were added at concentrations ranging from 10-75 μg/ml. Control wells contained medium only. After 16 hours, cells were fixed and stained with Diff-Quick fixative (methanol) and solution II (6.25% (w/v) each of azure A and methylene blue) (Dade A G, Dudingen, Switzerland), and tube formation was scored by a blinded observer. Each peptide was tested at least in triplicate, and the assays were repeated a minimum of three times.
Tube formation assays were repeated using truncated versions of the C16Y peptide to determine the minimal active sequence of the peptide. The carboxyl end of C16Y was not necessary for activity, whereas the amino terminal aspartic acid was required. The minimal active sequence for the C16Y peptide is shown in SEQ ID NO: 2. Each of the peptides containing at least this 8 amino acid sequence (SEQ ID NOs: 1-5) inhibited tube formation.

[3] = tested on: MDA-MB 231 breast cancer cells; assay: Primary tumor growth in nude mice (s.c. MDA-MB 231); assay type: in vivo; conditions: 1 mg/day i.p.
Method: FIG. 7: Inhibition of primary tumor growth by C16Y. MDA-MB 231 cancer cells were injected subcutaneously (s.c.) into nude mice and the tumors were allowed to grow until they reached 200-300 mm^3. Mice were then treated daily for 7-10 days with C16 (1 mg/day) or C16Y peptides (0.2, 0.5, or 1 mg/day) by intraperitoneal (i.p.) injection. Control mice were injected with water only. Tumor size was measured at 0, 3, 6, and 9 days after peptide injections began. A. Mice were treated with 1 mg/day of either C16 or C16Y peptide for 10 days. […] B. Mice were treated with C16Y peptide at varying concentrations for 7 days. C16Y decreased tumor size at all concentrations tested during the 7 days it was administered. Tumor growth resumed when administration of the C16Y peptide was halted, with tumor size increasing more rapidly in mice treated with lower dosages of C16Y. Bars represent ±SD.
MDA-MB 231 breast cancer cells (5×10^5 cells) mixed with Matrigel (1:4) were injected subcutaneously (s.c.) into nude mice. […] Tumor growth was monitored with a caliper, with measurements being taken on days 0, 3, 6, and 9 after the first peptide injection. Tumor volume was determined using the formula width^2×length×0.52. […] Vessel number was determined by staining sections with a CD-31 antibody (Nomizu 2001) and counting 6 fields per section per mouse (n=2 section/mouse; total 3 mice).

“KAFDITYVRLKF [Peptide C16, angiogenic peptide from the γ1 chain of laminin-1]” was tested, and the “Angiogenesis with peptide administered alone” value [1] was “capable of inducing angiogenesis”, the Average tumor weight ([2]; 50 μg/ml peptide) was 5.45 ± 0.84 mg and the Average tumor weight ([2]; 100 μg/ml peptide) was 5.85 ± 0.54 mg. The “Vessels observed in tumors” value ([2]; P≦0.027) was 9.6±0.23, the “Effect on MDA-MB 231 cell proliferation” value (MDA-MB 231 cells) was “Neither C16 nor C16Y altered MDA-MB 231 cell proliferation” and the “Dose at which tube formation is disrupted (lowest active)” value (HUVECs; 10-75 μg/ml tested) was 50 µg/mL. The “Disruption of tube formation” value (HUVECs; peptide concentration 10 μg/ml) was “−”, the “Disruption of tube formation” value (HUVECs; peptide concentration 25 μg/ml) was “−” and the “Disruption of tube formation” value (HUVECs; peptide concentration 50 μg/ml) was “+”. The “Disruption of tube formation” value (HUVECs; peptide concentration 75 μg/ml) was “+++”, the “Tumor size relative to original size” value ([3]; 7 days, stated jointly with control mice) was 1.7-2.5 times their original size and the “Tumor growth” value ([3]; after 7 days) was “did not significantly affect tumor growth”.

From patent US8039585B2, “Therapeutic administration of the scrambled anti-angiogenic peptide C16Y” (The United States of America as represented by the …, priority 2004, dated 2011)
